{
  "source": "patent US12660812B2",
  "about": "“Cryoprotecting agent, cryoprotecting and cryopreserved compositions, uses thereof, and methods of cryopreservation” (PHARMACOSMOS HOLDING A/S, priority 2012, dated 2026)",
  "test_system": "adipose-derived stromal/stem cells (ASC's)",
  "assay": "Viability of adipose-derived stromal/stem cells after cryopreservation, flow cytometry with 7-AAD",
  "assay_type": "cell-based",
  "settings": "10% DMSO",
  "from_the_text": "ASC's were harvested from adipose tissue obtained by cosmetic liposuction of the abdomen or the inner thighs using the Vibrasat device (Möller Medical GmbH & Co. KG, Fulda, Germany). The ASC's from the stromal vascular fraction were expanded ex vivo in culture medium consisting of Dulbecco's modified Eagle's medium, 1% penicillin-streptomycin, 1% GlutaMAX, and 10% pooled human platelet lysate. Cells were frozen in cryoprotective medium containing 10% DMSO or different concentrations of isomaltooligosaccharide 1 (isom) or hydrogenated isomaltooligosaccharide 1 (h-isom). Samples were frozen using a controlled rate freezer (Kryo 560-16, Planer; start temp. 4° C., −1° C./min drop to 0° C., −2° C./min drop to −45° C. and −5° C./min drop to −100° C.) and moved to −150° C. Samples were thawed in a 37° C. water bath. Flow cytometry was applied for phenotype characterization (positive for CD73, CD90, CD105 and negative for CD14, CD20, CD45 and CD34) and to estimate the viability of ASC's. The fluorescent DNA binding compound 7-Aminoactinomycin D (7-AAD) was used as a live/dead marker. Cells able to exclude 7AAD were assumed to be viable. The results are shown in FIG. 11: Isomaltooligosaccharide 1 (light grey bars), hydrogenated isomaltooligosaccharide 1 (dark grey bars) and DMSO (black bars). Data shown here are from a single experiment measured in doublets. […]",
  "data": [
    {"compound": "C[S+](C)[O-]", "note": "[DMSO, dimethyl sulfoxide]", "values": [
      {"measurement": "Viability of ASCs, result against expectation", "value": "lower than expected"}
    ]}
  ]
}
